#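 How tested: cells in 96-well plates exposed to compound for 48 hours at five concentrations. GI50: concentration for 50% inhibition of growth.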 Active and inactive are the calls of the source. Rule as the data show it: active = GI50 up to about 1.1 µM and inactive = higher.
# What was measured:
# Assay in all cases: NCI tumour cell line growth inhibition, 48 h
# KM-20L2 = test system: KM-20L2
# XF498 = test system: XF498
# LXFL 529 = test system: LXFL 529
# SNB-78 = test system: SNB-78
# M19-MEL = test system: M19-MEL
# RXF 631 = test system: RXF 631
# HOP-18 = test system: HOP-18
# Hs-578T = test system: Hs-578T
# T47D = test system: T47D
Structure (SMILES),GI50 (KM-20L2),GI50 (XF498),GI50 (LXFL 529),GI50 (SNB-78),GI50 (M19-MEL),GI50 (RXF 631),GI50 (HOP-18),GI50 (Hs-578T),GI50 (T47D)
C/C(CC(=O)Nc1ccc(NC(=O)C/C(C)=N\NC(N)=O)cc1)=N/NC(N)=O,> 100 µM (inactive),> 92.3 µM (inactive),65.9 µM (inactive),> 100 µM (inactive),> 100 µM (inactive),33 µM (inactive),63 µM (inactive),–,–
CN(C)CCNC(=O)c1cccc2[nH]c(-c3ccccc3)nc12,–,–,–,32.1 µM (inactive),19.4 µM (inactive),24.4 µM (inactive),11.9 µM (inactive),–,–
CC1=C(c2cc(C(=O)Nc3nccs3)nc(NC#N)n2)Sc2ccccc2N1,> 100 µM (inactive),> 100 µM (inactive),> 100 µM (inactive),–,> 100 µM (inactive),> 100 µM (inactive),> 100 µM (inactive),–,–
CC1OC(n2cc(I)c(=O)[nH]c2=O)C=CC1=O (centres undefined),17 µM (inactive),19.2 µM (inactive),10.8 µM (inactive),14.7 µM (inactive),16.4 µM (inactive),–,16.7 µM (inactive),–,–
COc1ccc2c(c1)[n+]([O-])c(-c1ccccc1)c(N)[n+]2[O-],46 µM (inactive),35 µM (inactive),30.5 µM (inactive),44.8 µM (inactive),39.2 µM (inactive),–,33.6 µM (inactive),–,–
COC1OC(CBr)C(OC(=O)c2ccccc2)C(O)C1Br (centres undefined),> 100 µM (inactive),> 10 µM (inactive),> 100 µM (inactive),> 100 µM (inactive),> 100 µM (inactive),–,> 100 µM (inactive),–,–
CN(C(=N)c1ccccc1)c1ccccc1,> 100 µM (inactive),–,> 100 µM (inactive),> 100 µM (inactive),> 100 µM (inactive),–,> 100 µM (inactive),–,–
Cc1ccc(-c2c(N)[n+]([O-])c3ccccc3[n+]2[O-])cc1,15 µM (inactive),3.71 µM (inactive),5.81 µM (inactive),13 µM (inactive),11.7 µM (inactive),1.65 µM (inactive),15.7 µM (inactive),–,–
C[N+]1(C)C/C(=C\C=C\c2ccccc2)C(=O)/C(=C/C=C/c2ccccc2)C1,14.7 µM (inactive),8.49 µM (inactive),2.98 µM (inactive),6.12 µM (inactive),7.06 µM (inactive),–,> 42.2 µM (inactive),4.29 µM (inactive),17 µM (inactive)
COC(=O)N/N=C(/CC1(O)C(=O)Nc2ccc([N+](=O)[O-])cc21)c1ccccc1 (centres undefined),> 100 µM (inactive),19.4 µM (inactive),36.8 µM (inactive),20.9 µM (inactive),66.5 µM (inactive),–,–,20.8 µM (inactive),48.8 µM (inactive)
Fc1ccccc1C1CC(C(c2ccccc2)c2ccccc2)=Nc2ccccc2S1 (centres undefined),6.53 µM (inactive),13.7 µM (inactive),4.23 µM (inactive),–,–,8.04 µM (inactive),16.2 µM (inactive),–,–
NC(=O)NNC/C(Cl)=C(\Cl)C(=O)O,> 100 µM (inactive),> 100 µM (inactive),> 100 µM (inactive),> 100 µM (inactive),> 100 µM (inactive),–,> 100 µM (inactive),–,–
CC1(c2ccccc2)CC(c2ccccc2)=NO1 (centres undefined),–,–,> 100 µM (inactive),> 100 µM (inactive),> 100 µM (inactive),–,> 100 µM (inactive),–,–
O=C(NC(=O)c1ccccc1[N+](=O)[O-])Nc1ccc(Oc2ncc(Br)cn2)c(Cl)c1,0.022 µM (active),0.00723 µM (active),0.0302 µM (active),–,0.0196 µM (active),0.0284 µM (active),0.064 µM (active),0.0342 µM (active),0.0871 µM (active)
CC(=O)c1c(O)ccc2c1CC(CC=O)O2 (centres undefined),> 100 µM (inactive),> 100 µM (inactive),42.9 µM (inactive),64.6 µM (inactive),40.1 µM (inactive),65 µM (inactive),–,–,–
C/C(=N\NC(=O)c1ccccc1O)c1c(O)cc(C)oc1=O,> 100 µM (inactive),–,85.5 µM (inactive),> 100 µM (inactive),83.4 µM (inactive),–,27.2 µM (inactive),–,–
Cc1cccc(C)c1N1C(=O)C(=O)C(c2nc3ccccc3s2)/C(=N/NC(=O)NN)C1=O (centres undefined),> 100 µM (inactive),> 100 µM (inactive),> 100 µM (inactive),> 100 µM (inactive),> 100 µM (inactive),–,> 100 µM (inactive),–,–
Cc1cc(=O)n2c3c(c4c(cc13)c(CO)cc(=O)n4C)OC2,29.9 µM (inactive),10.7 µM (inactive),5.07 µM (inactive),15 µM (inactive),12.2 µM (inactive),5.6 µM (inactive),19.5 µM (inactive),–,–
Cn1c(=O)c2c3oc(=O)cc(O)c3c(=O)n3c4ccccc4n(c1=O)c23,–,23.8 µM (inactive),34.8 µM (inactive),37 µM (inactive),38.9 µM (inactive),46.6 µM (inactive),36.5 µM (inactive),–,–
CCOC(=O)C1(c2ccccc2)CCC(=O)CC1,> 100 µM (inactive),–,> 100 µM (inactive),> 100 µM (inactive),> 100 µM (inactive),> 100 µM (inactive),> 100 µM (inactive),–,–
O=C(O)CCSC(=O)Nc1ccccc1Cl,> 100 µM (inactive),> 100 µM (inactive),> 100 µM (inactive),> 100 µM (inactive),> 100 µM (inactive),> 100 µM (inactive),> 100 µM (inactive),–,–
COC(=O)C1=CC2C(=O)OC1C1C(=O)NC(=O)C21 (centres undefined),> 100 µM (inactive),> 100 µM (inactive),> 100 µM (inactive),> 100 µM (inactive),> 100 µM (inactive),> 100 µM (inactive),> 100 µM (inactive),–,–
CCCCCCCCCCCCNC(=S)OCCCC,> 100 µM (inactive),> 100 µM (inactive),> 100 µM (inactive),> 100 µM (inactive),42.2 µM (inactive),> 100 µM (inactive),> 100 µM (inactive),–,–
CCOC(=O)C(C(=O)OCC)=C1N[C@H](C(=O)OCC)CS1,> 100 µM (inactive),> 100 µM (inactive),> 100 µM (inactive),> 100 µM (inactive),> 100 µM (inactive),> 100 µM (inactive),> 100 µM (inactive),–,–
O=C(NNC(=O)c1cc(/C=C/c2cccc([N+](=O)[O-])c2)nc(S)n1)Nc1ccc(Cl)cc1,45.9 µM (inactive),28.6 µM (inactive),42.3 µM (inactive),> 100 µM (inactive),69 µM (inactive),–,> 100 µM (inactive),–,–
COC(=O)C1=CC2OC13CC1CCC3(C2=O)C1(C)C (centres undefined),13.3 µM (inactive),3.77 µM (inactive),4.49 µM (inactive),14.4 µM (inactive),11.5 µM (inactive),13.9 µM (inactive),6.46 µM (inactive),–,–
O=[N+]([O-])C1C2C=CC(C2)[C@H]1c1ccccc1Cl (some centres undefined),> 100 µM (inactive),> 77.1 µM (inactive),75 µM (inactive),> 100 µM (inactive),–,76.2 µM (inactive),> 100 µM (inactive),–,–
N#C/C(=C\c1ccc(O)c(O)c1)C(N)=S [TYRPHOSTIN 47],> 70.5 µM (inactive),> 100 µM (inactive),72.8 µM (inactive),> 100 µM (inactive),> 100 µM (inactive),–,> 100 µM (inactive),–,–

# Source: ChEMBL document CHEMBL1201862, “PubChem BioAssay data set” (2004)
